# Measurements as given in the supplement of paper PMC4862054.
# Legend:
# Conditions in all cases: incubation time: 72 h
# HDQ-P1 = test: normalised viability (% of control), CellTiter-Blue; higher = more viable cells (100 = DMSO, 0 = benzethonium chloride kill control)
# Procedure: (§1)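 DSRT, CellTiter-Blue viability, 72 h incubation. Signal is normalised to DMSO and benzethonium chloride controls. Value is the normalised response at dose 1.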
# CAL-85-1 = test: as above
# Procedure: as §1
# MFM-223 [1] = test: as above
# Procedure: as §1
# HCC1937 = test: as above
# Procedure: as §1
# CAL-120 = test: as above
# Procedure: as §1
# DU-4475 [2] = test: as above
# Procedure: as §1
# MDA-MB-468 = test: as above
# Procedure: as §1
# Hs578T = test: as above
# Procedure: as §1
# MDA-MB-436 = test: as above
# Procedure: as §1
# CAL-148 = test: as above
# Procedure: as §1
# BT-474 [3] = test: as above
# Procedure: as §1
# CAL-51 = test: as above
# Procedure: as §1
# HCC1599 = test: as above
# Procedure: as §1
# BT-549 [4] = test: as above
# Procedure: as §1
# HCC1143 = test: as above
# Procedure: as §1
# SK-BR-3 = test: as above
# Procedure: as §1
# MDA-MB-453 [5] = test: as above
# Procedure: as §1
# MDA-MB-231 = test: as above
# Procedure: as §1
# MFM-223 [6] = test: normalised viability (% of control), CellTiter-Blue; higher = more viable cells (about 100 = DMSO control)
# How it was run: (§2)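 Normalised viability is given for a single listed concentration of the series. In 384-well plates, breast cancer cell lines were incubated 72 h with compound, then read with CellTiter-Blue (2 h, 37 °C) at 560/590 nm. Per-plate scaling set vehicle to 100 and a positive kill control to 0, with Z'-factor quality control.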
# DU-4475 [7] = test: as above
# How it was run: as §2
# BT-474 [8] = test: as above
# How it was run: as §2
# BT-549 [9] = test: as above
# How it was run: as §2
# MDA-MB-453 [10] = test: as above
# How it was run: as §2
smiles,measurement,setting,value
COc1cc(CCc2cc(NC(=O)c3ccc(N4CC(C)NC(C)C4)cc3)n[nH]2)cc(OC)c1 (stereo unspecified) [AZD4547],normalised viability,HDQ-P1; 0.1 nM,139%
same,normalised viability,CAL-85-1; 0.1 nM,89.7%
same,normalised viability,MFM-223 [1]; 0.1 nM,91.8%
same,normalised viability,HCC1937; 0.1 nM,105%
same,normalised viability,CAL-120; 0.1 nM,93.6%
same,normalised viability,DU-4475 [2]; 0.1 nM,95.7%
same,normalised viability,MDA-MB-468; 0.1 nM,125%
same,normalised viability,Hs578T; 0.1 nM,108%
same,normalised viability,MDA-MB-436; 0.1 nM,94.4%
same,normalised viability,CAL-148; 0.1 nM,113%
same,normalised viability,BT-474 [3]; 0.1 nM,112%
same,normalised viability,CAL-51; 0.1 nM,117%
same,normalised viability,HCC1599; 0.1 nM,115%
same,normalised viability,BT-549 [4]; 0.1 nM,111%
same,normalised viability,HCC1143; 0.1 nM,96%
same,normalised viability,SK-BR-3; 0.1 nM,102%
same,normalised viability,MDA-MB-453 [5]; 0.1 nM,105%
same,normalised viability,MDA-MB-231; 0.1 nM,100%
same,normalised viability,MFM-223 [6]; 10 nM,59.2%
same,normalised viability,DU-4475 [7]; 1 nM,100%
same,normalised viability,BT-474 [8]; 10 nM,131%
same,normalised viability,BT-549 [9]; 10 nM,109%
same,normalised viability,MDA-MB-453 [10]; 1 nM,107%
CCC/C=C/C=C/C(=O)O[C@H]1/C(=C/C(=O)OC)C[C@H]2C[C@H]([C@@H](C)O)OC(=O)C[C@H](O)C[C@@H]3C[C@H](OC(C)=O)C(C)(C)[C@](O)(C[C@@H]4C/C(=C/C(=O)OC)C[C@H](/C=C/C(C)(C)[C@]1(O)O2)O4)O3 [Bryostatin 1],normalised viability,HDQ-P1; 0.01 nM,100%
same,normalised viability,CAL-85-1; 0.01 nM,97.5%
same,normalised viability,MFM-223 [1]; 0.01 nM,96.2%
same,normalised viability,HCC1937; 1 nM,85.2%
same,normalised viability,CAL-120; 0.01 nM,85.8%
same,normalised viability,DU-4475 [2]; 0.01 nM,118%
same,normalised viability,MDA-MB-468; 1 nM,99.1%
same,normalised viability,Hs578T; 0.01 nM,106%
same,normalised viability,MDA-MB-436; 0.01 nM,140%
same,normalised viability,CAL-148; 0.01 nM,98.8%
same,normalised viability,BT-474 [3]; 1 nM,105%
same,normalised viability,CAL-51; 0.01 nM,99.2%
same,normalised viability,HCC1599; 0.01 nM,123%
same,normalised viability,BT-549 [4]; 0.01 nM,109%
same,normalised viability,HCC1143; 0.01 nM,114%
same,normalised viability,SK-BR-3; 1 nM,103%
same,normalised viability,MDA-MB-453 [5]; 0.01 nM,102%
same,normalised viability,MDA-MB-231; 1 nM,98.7%
same,normalised viability,MFM-223 [6]; 1 nM,98.7%
same,normalised viability,DU-4475 [7]; 0.1 nM,92.1%
same,normalised viability,BT-474 [8]; 100 nM,102%
same,normalised viability,BT-549 [9]; 1 nM,94.8%
same,normalised viability,MDA-MB-453 [10]; 0.1 nM,99%
